Data as given in patent US6541463B1, “Inhibitors of type 5 and type 3 17β-hydroxysteroid dehydrogenase and methods for their use” (Endorecherche, Inc., priority 1998, dated 2003).

Experiments:
[1] = biological target: T1, human type 2 17β-hydroxysteroid dehydrogenase (Homo sapiens, UniProt P37059); assay: Enzymatic assay for type 2 17β-HSD; format: biochemical; conditions: Table 4′; for IC50: read-out: Inhibition Type 2 17β-HSD Activity IC50; for Inhibition Type 2 17β-HSD Activity [% Inh. at 3 · 10^−8M] / inhibition: bracketed values, 3 · 10^−8M; for inhibition: read-out: Inhibition Type 2 17β-HSD Activity [% Inh. at 3 · 10^−8M]
T1 construct: expressed in transfected cells; host or cells: 293 cells, transient transfection; microsomal fraction (100 000×g pellet)
T1 sequence (P37059 1-387): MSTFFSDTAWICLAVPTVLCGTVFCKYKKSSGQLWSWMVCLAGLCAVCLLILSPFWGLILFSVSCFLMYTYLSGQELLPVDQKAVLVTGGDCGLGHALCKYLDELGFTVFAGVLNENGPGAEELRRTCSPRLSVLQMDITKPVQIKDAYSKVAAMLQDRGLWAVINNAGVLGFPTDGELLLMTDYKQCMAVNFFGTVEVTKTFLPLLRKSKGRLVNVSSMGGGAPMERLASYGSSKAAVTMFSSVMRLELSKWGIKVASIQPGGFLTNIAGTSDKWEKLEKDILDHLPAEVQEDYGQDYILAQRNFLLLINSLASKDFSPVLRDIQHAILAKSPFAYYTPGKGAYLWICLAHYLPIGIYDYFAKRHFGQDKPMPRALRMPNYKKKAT
Method: The manner in which IC50 was determined is described in “Efficacy of Preferred Inhibitors: VI. Enzymatic assay for types 1, 2, and 3 17β-HSD and types 1 and 3 3α-HSD”. […] numbers of IC50 are desirable. Blank means that a determination was not done. […]
Enzyme sources. 293 cells transiently transfected with expression vectors encoding types 1, 2 and 3 17β-HSD (Luu-The et al., J. Steroid Biochem. Molec. Biol., 55: 581-587, 1995), types 1 and 2 5α-reductase (Luu-The et al., J. Invest. Dermatol., 102: 221-226, 1994) and types 1 and 3 3α-HSD (Dufort et al. Biochem. Biophys. Res. Commun. 228: 474-479, 1996), using the calcium phosphate procedure (Kingston et al., In: Current Protocols in Molecular Biology. Edited by E. M. Ausbel, R. Brent, R. E. Kingston, D. D. Moore, J. G. Seidman, J. A. Smith, K. Struhl. John Wiley & Sons, New York, pp. 9.1.1-9.1.9, 1991; Luu-The et al., J. Invest. Dermatol., 102: 221-226, 1994). For assays using cell subfractions, cells were sonicated in 50 mM sodium phosphate buffer (pH 7.4), containing 20% glycerol and 1 mM EDTA and centrifuged at 10 000×g for 30 min before centrifugation for 100 000×g for 1 h to separate the mitochondrial and microsomal fractions, respectively. The cytosol fractions (100 000×g supernatant) was used to determine type 1 activity while the microsomal fraction (pellet at 100 000×g) was used for measurement of types 2 and 3 17β-HSD activities.
Incubation. The enzymatic reaction was carried out at 37° C. in 1 ml of 50 mM sodium phosphate buffer, pH 7.4, containing 20% glycerol, 1 mM EDTA, and 2 mM cofactors (NADPH or AND^+) for 1 h in the presence of 0.1 μM ^14C-labeled substrate: estrone and 4-dione for types 1 and […] 17β-HSD, respectively, testosterone for type 2 17β-HSD as well as types 1 and 2 5α-reductases, DHT for types 1 and 3 3α-HSD activities, and the indicated concentration of inhibitor.
Extraction of metabolites, migration on TLC and quantification were as described above for the assay of type 5 17β-HSD.

ZR-75-1 cells [2] = assay: Estrogenic activity: stimulation of proliferation of ZR-75-1 cells; format: cell-based, human; conditions: Table 4′
Method: […] The manner in which the stimulation is determined is described in “Other Tests; C-Estrogenic/Antiestrogenic activity” Lower numbers are desirable. ND means that a determination was not done.
(§1) Estrogenic/antiestrogenic activity of some preferred compounds has been measured using the […] human breast cancer cell line as described in more detail below.
(§2) All media and medium supplments were purchased from Sigma. Cells were subcultured weekly by treatment with a pancreatic solution containing EDTA (0.2 g/L). The cell cultures used for the experiments herein describied were between passages 89 and 94.
(§3) Cells in their logarithmic growth phase were harvested, briefly centrifuged, and resuspended in RPMI 1640. Cells were then plated in triplicate in LIMBRO 24-well plastic culture plates (2 cm^2/well). Since plating density influences the effect of hormones on ZR-75-1 cell growth, cells were plated at a density of 1×10^4 cells/well. […] Control cultures received the ethanol vehicle only. Cells were then allowed to grow at 37° C. for 10 days with medium changes (of identical composition) every 2 days.
(§4) After E2 and/or antiestrogen treatment, cells were harvested by addition of 0.5 ml of a pancreatin solution (Sigma) for 5-10 min at 37° C. before addition of 0.5 mnl of RPMI 1640 containing 5% dextran coated […] bovine serum in order to block enzymatic action. Cell number (0.10 ml aliquot) was determined by measurement of DNA content as previously described (Simard et al., Endocrinology 126: 3223-3231,1990).

ZR-75-1 cells [3] = assay: Antiestrogenic activity: inhibition of E2-induced proliferation of ZR-75-1 cells; format: cell-based, human; set-up: ZR-75-1 Activity, E2 / ZR-75-1 Activity E2 E^−6: unit not given here
Method: The manner in which the inhibition is determined is described in “Other Tests; C-Estrogenic/Antiestrogenic Activity”. Lower numbers are desirable. ND means that a determination was not done.
as §1, §2, §3, §4

CC1(C)CCC2(CCC3C4CCc5c(cc(Cl)c(OS(C)(=O)=O)c5Cl)C4CCC32C)OC1=O (centres unmarked) [EM-1392-CS] was tested, and the IC50 [1] was > 10 µM.
COCCOc1cc2c(cc1F)C1CCC3(C)C(CCC34CCC(C)(C)C(=O)O4)C1CC2 (centres unmarked) [EM-1393-CS] was tested, and the IC50 [1] was > 10 µM.
For CC1(C)CCC2(CCC3C4CCc5cc(C(=O)OCc6ccccc6)ccc5C4CCC32C)OC1=O (centres unmarked) [EM-1398], the “Inhibition Type 2 17β-HSD Activity [% Inh. at 3 · 10^−8M]” value [1] was “[64] %”.
COCCOc1cc2c(cc1C(=O)O)C1CCC3(C)C(CCC34CCC(C)(C)C(=O)O4)C1CC2 [EM-1405, 2-Carboxy-3-(2″-methoxyethyloxy)-1,3,5(10)-estratrien-17(R)-spiro-2′-(5′,5′-dimethyl-6′-oxo)tetrahydropyran] was tested, and the IC50 [1] was > 10 µM.
For CC1(C)CC[C@@]2(CCC3C4CCc5cc6oncc6cc5C4CC[C@@]32C)OC1=O (stereo partly drawn) [EM-1407-CS, 1,3,5(10)-estratrien-(2,3-oximino)-17(R)-spiro-2′-(5′,5′-dimethyl-6′-oxo)tetrahydropyran], the inhibition [1] was 68%.
In the case of COCCOc1ccc2c(c1)C(=O)CC1C2CCC2(C)C1CCC21CCC(C)(C)C(=O)O1 (centres unmarked) [EM-1408-CS], the inhibition [1] is reported as 66%.
Compound COc1cc2c(cc1C(F)(F)F)C1CCC3(C)C(CCC34CCC(C)(C)C(=O)O4)C1CC2 [EM-1409, 3-Methoxy-2-trifluoromethyl-1,3,5(10)-estratrien-17(R)-spiro-2′-(5′,5′-dimethyl-6′-oxo)tetrahydropyran] has an inhibition [1] of 4%.
COc1cc2c(cc1C)C1CCC3(C)C(CCC34CCC(C)(C)C(=O)O4)C1CC2 (centres unmarked) [EM-1412-CS] was tested, and the IC50 [1] was > 10 µM.
In the case of COCCOc1cc2c(cc1C(=O)N(C)C)C1CCC3(C)C(CCC34CCC(C)(C)C(=O)O4)C1CC2 (centres unmarked) [EM-1413-CS], the inhibition [1] is reported as 69% and the IC50 [1] is reported as > 10 µM.
With COCCOc1cc2c(cc1C(F)(F)F)[C@H]1CC[C@@]3(C)[C@@H](CC[C@@]34CCC(C)(C)C(=O)O4)[C@@H]1CC2 [EM-1438, 3-(2′-Methoxyethoxy)-2-trifluoromethyl-1,3,5(10)-estratrien-17(R)-spiro-2′-(5′,5′-dimethyl-6′-oxo)tetrahydropyran] the “Inhibition Type 2 17β-HSD Activity [% Inh. at 3 · 10^−8M]” value [1] was “[72] %”.
CC1(C)CCC2(CCC3C4CCc5cc(O)c(C#N)cc5C4CCC32C)OC1=O (centres unmarked) [EM-01645] gave an inhibition [1] of 38%.
Compound CC1(C)CCC2(CCC3C4CCc5cc(O)c(C(N)=O)cc5C4CCC32C)OC1=O (centres unmarked) [EM-01660] has an inhibition [1] of 59%.
Work on CN(C)C(=O)c1cc2c(cc1O)CCC1C2CCC2(C)C1CCC21CCC(C)(C)C(=O)O1 (centres unmarked) [EM-01661-B] yielded an inhibition [1] of 55%.
Work on COC(=O)c1cc2c(cc1O)CCC1C2CCC2(C)C1CCC21CCC(C)(C)C(=O)O1 (centres unmarked) [EM-01662] yielded an inhibition [1] of 70%.
For CC12CCC3c4ccc(O)cc4CCC3C1CCC21CC=CC(=O)O1 [PB-132-140, 3-hydroxy-1,3,5(10)-estratrien-17(R)-spiro-2′-(4′,5′-dihydro-6′-oxo)pyran], the “ZR-75-1 Activity, Basal E^−6” value (ZR-75-1 cells [2]; E^−6) was 71%, the “ZR-75-1 Activity, Basal E^−8” value (ZR-75-1 cells [2]; E^−8) was 15% and the “ZR-75-1 Activity, E2 3E^−8” value (ZR-75-1 cells [3]; Table 4′, E2-induced proliferation, 3E^−8) was 0%.
With CC(=O)O[C@]1(C(C)=O)CCC2C3C=C(C)C4=CC(=O)CC[C@]4(C)C3CC[C@@]21C (some centres unmarked) [megestrol acetate, reference compound] the “ZR-75-1 Activity, E2” value (ZR-75-1 cells [3]; E2) was −81 and the “ZR-75-1 Activity, E2” value (ZR-75-1 cells [3]; E2, E^−8) was −70.
